The values below come from publication PMC11062899, “De novo development of small cyclic peptides that are orally bioavailable” (Nature Chemical Biology, 2023).

Structures are written as SMILES.

The assay deals with human α-thrombin (Homo sapiens, UniProt P00734). Description: Sub-library screen for active and permeable cyclic peptides (PAMPA plus thrombin inhibition). The class given is biochemical. Particulars: crude, slopes normalized to DMSO; for Residual thrombin activity: Top sample: PAMPA acceptor well after 14 h, 5 μM donor; for Residual thrombin activity: Equilibrated sample: donor sample diluted to theoretical equilibrium (1 μM in assay). As to the method: Linear dithiol peptides were synthesized in fritted 5-ml polypropylene syringes on a MultiPep RSi parallel peptide synthesizer (Intavis) by standard Fmoc-based solid-phase peptide synthesis on cysteamine 2-chlorotrityl resin (Sigma-Aldrich, 8.56000, 1.63 mmol g^−1 loading, 25 μmol scale) as described above with small changes. Amino acids (65 μmol, 2.6 eq.) were activated with HATU (63 μmol, 2.5 eq.) and NMM (145 μmol, 5.8 eq.) in 280 μl of DMF and 5 μl of NMP and let to react with the resin (25 μmol, 1 eq.) for 45 min. Couplings were performed twice for each amino acid. Resin was washed once with 800 μl of DMF, and unreacted amines were capped with 5% acetic anhydride and 6% 2,6-lutidine in 400 μl of DMF for 5 min. The resin was washed six times with 600 μl of DMF, and Fmoc protecting groups were removed by incubating the resin twice with 450 μl of a 20% piperidine solution in DMF for 5 min. The resin was washed six times with 600 μl of DMF before proceeding to the next coupling cycle. After completing the last coupling cycle, the resin was washed six times with […] of DCM. Peptide cleavage and ether precipitation were carried out as described above. After quantification with Ellman’s reagent, 1 μmol of each peptide was transferred in seven replicates to new Nunc 96-well DeepWell polypropylene plates and lyophilized. Peptides were cyclized as described above to afford 20 mM cyclic peptide stock solutions in DMSO containing 160 mM HEPES sodium salt. The amine on cyclic peptides was acylated with 5-chlorothiophene-2-carboxylic acid as follows. A 160 mM solution in 5-chlorothiophene-2-carboxylic acid was prepared in DMSO containing 160 mM HEPES sodium salt, and the acid was activated by mixing in equal volumes with a 160 mM HSTU solution in DMSO. Then, 10 μl of the activated carboxylic acid solutions and the cyclic peptide stocks were placed in Echo Qualified 384-well Low Dead Volume microplates (Labcyte), and 400 nl of cyclic peptide and 400 nl of HSTU-activated 5-chlorothiophene-2-carboxylic acid were transferred combinatorially to 384-well microplates (Greiner, 781076) using the Echo 650 acoustic liquid handler (Labcyte). Plates were centrifuged at 2,000 g for 2 min, and the reaction was allowed to proceed at room temperature for 8 h before addition of 39.2 μl of DMSO with a CERTUS FLEX liquid dispenser (Gyger). A volume of 25 μl of the resulting DMSO solutions was diluted with PBS buffer at pH 7.4 containing 5% DMSO in Nunc 96-well DeepWell polypropylene plates to afford 5 μM solutions of the acylated peptides.
The PAMPA plates were covered with a lid to avoid evaporation and incubated for 14 h at room temperature. Additionally, a diluted donor sample was prepared at the concentration representing theoretical maximum permeability (3 μM). Thereby, 30 μl of the donor sample before incubation was diluted with 20 μl of PBS buffer at pH 7.4 containing 5% DMSO. Volumes of 16 μl of each acceptor well and the diluted donor samples were transferred to a 384-well microplate (Greiner, 781076), and thrombin activity was measured as follows. Human α-thrombin (16 μl, 6 nM, Molecular Innovations) in assay buffer was dispensed into each well using a CERTUS FLEX liquid dispenser (Gyger), and plates were incubated at room temperature for 10 min. Then, 16 μl of a 150 μM fluorogenic thrombin substrate solution (Z-Gly-Gly-Arg-AMC, Bachem) in assay buffer containing 1% DMSO was added to each well, and thrombin inhibition was determined by measuring the fluorescent gain over time. Fluorescence intensity was measured on a Tecan Infinite M200 Pro microplate reader for 30 min at 25 °C with a fluorescent readout every 3 min (excitation: 360 nm, emission: 465 nm). Protease inhibition was calculated by comparing the enzymatic activity to a control without cyclic peptide.

Take `O=C1C[C@H]2CCCN2C(=O)[C@H](Cc2ccc(C(F)(F)F)cc2)NC(=O)[C@@H](NC(=O)c2ccc(Cl)s2)CSCCS(=O)(=O)CCSCCN1` [C1-X36-L2]: the “Residual thrombin activity: Top sample” value was 99.0 and the “Residual thrombin activity: Equilibrated sample” value is on record as 102.5.

For the compound `O=C1C[C@H]2CCCN2C(=O)[C@H](Cc2ccccc2)NC(=O)[C@@H](NC(=O)c2ccc(Cl)s2)CCSCc2cccc(c2)CSCCN1` [C2-X5-L5], the “Residual thrombin activity: Top sample” value was 90.5 and the “Residual thrombin activity: Equilibrated sample” value is recorded as 54.8.

With `O=C1C[C@H]2CCCN2C(=O)[C@H](Cc2ccc(Cl)cc2)NC(=O)[C@@H](NC(=O)c2ccc(Cl)s2)CSCc2cccc(c2)CSCCN1` [C1-X34-L5], the “Residual thrombin activity: Top sample” value came to 97.0 and the “Residual thrombin activity: Equilibrated sample” value was 98.5.

With `COc1ccc(C[C@@H]2NC(=O)[C@@H](NC(=O)c3ccc(Cl)s3)CCSCc3ccccc3CSCCNC(=O)C[C@H]3CCCN3C2=O)cc1` [C2-X33-L6], the “Residual thrombin activity: Top sample” value was 92.7 and the “Residual thrombin activity: Equilibrated sample” value stood at 95.5.

As to `CN1C(=O)[C@@H](NC(=O)c2ccc(Cl)s2)CCSC/C=C/CSCCNC(=O)C[C@H]2CCCN2C(=O)[C@@H]1Cc1ccccc1` [C2-X32-L4], the “Residual thrombin activity: Top sample” value is 99.0 and the “Residual thrombin activity: Equilibrated sample” value stood at 101.4.

`COc1ccc(C[C@@H]2NC(=O)[C@@H](NC(=O)c3ccc(Cl)s3)CCSCc3ccc(cc3)CSCCNC(=O)C[C@H]3CCCN3C2=O)cc1` [C2-X33-L3]: the “Residual thrombin activity: Top sample” value is recorded as 100.8 and the “Residual thrombin activity: Equilibrated sample” value is 99.6.

With `O=C1C[C@H]2CCCN2C(=O)[C@@H](Cc2ccccc2)NC(=O)[C@@H](NC(=O)c2ccc(Cl)s2)CCCSCc2ccccc2CSCCN1` [C3-X31-L6], the “Residual thrombin activity: Top sample” value amounted to 97.6 and the “Residual thrombin activity: Equilibrated sample” value came out at 87.4.

On to `O=C1C[C@H]2CCCN2C(=O)[C@@H](Cc2ccccc2)NC(=O)[C@@H](NC(=O)c2ccc(Cl)s2)CCCSCc2cccc(n2)CSCCN1` [C3-X31-L1], for which the “Residual thrombin activity: Top sample” value stood at 96.1 and the “Residual thrombin activity: Equilibrated sample” value was determined as 92.4.

For the compound `COc1ccc(C[C@@H]2NC(=O)[C@@H](NC(=O)c3ccc(Cl)s3)CCSCCS(=O)(=O)CCSCCNC(=O)C[C@H]3CCCN3C2=O)cc1` [C2-X33-L2], the “Residual thrombin activity: Top sample” value was found to be 98.8 and the “Residual thrombin activity: Equilibrated sample” value stood at 98.9.

In the case of `N#Cc1ccc(C[C@@H]2NC(=O)[C@@H](NC(=O)c3ccc(Cl)s3)CCSCc3ccccc3CSCCNC(=O)C[C@H]3CCCN3C2=O)cc1` [C2-X35-L6], the “Residual thrombin activity: Top sample” value worked out at 90.0 and the “Residual thrombin activity: Equilibrated sample” value was determined as 91.7.

Take `O=C1C[C@H]2CCCN2C(=O)[C@H](Cc2ccc(Cl)cc2)NC(=O)[C@@H](NC(=O)c2ccc(Cl)s2)CCCSC/C=C/CSCCN1` [C3-X34-L4]: the “Residual thrombin activity: Top sample” value was 100.7 and the “Residual thrombin activity: Equilibrated sample” value is listed as 91.1.

Consider `COc1ccc(C[C@@H]2NC(=O)[C@@H](NC(=O)c3ccc(Cl)s3)CCCSC/C=C/CSCCNC(=O)C[C@H]3CCCN3C2=O)cc1` [C3-X33-L4], for which the “Residual thrombin activity: Top sample” value is on record as 105.1 and the “Residual thrombin activity: Equilibrated sample” value is recorded as 97.8.

`COc1ccc(C[C@@H]2NC(=O)[C@@H](NC(=O)c3ccc(Cl)s3)CSCc3cccc(n3)CSCCNC(=O)C[C@H]3CCCN3C2=O)cc1` [C1-X33-L1]: the “Residual thrombin activity: Top sample” value was 92.7 and the “Residual thrombin activity: Equilibrated sample” value was determined as 96.7.

Regarding `O=C1C[C@H]2CCCN2C(=O)[C@H](Cc2ccccc2)NC(=O)[C@@H](NC(=O)c2ccc(Cl)s2)CCCSCc2ccccc2CSCCN1` [C3-X5-L6], the “Residual thrombin activity: Top sample” value is 74.4 and the “Residual thrombin activity: Equilibrated sample” value came to 55.6.

For `CN1C(=O)[C@@H](NC(=O)c2ccc(Cl)s2)CCSCC(=O)CSCCNC(=O)C[C@H]2CCCN2C(=O)[C@@H]1Cc1ccccc1` [C2-X32-L7], the “Residual thrombin activity: Top sample” value was found to be 101.9 and the “Residual thrombin activity: Equilibrated sample” value worked out at 101.7.

As for `O=C1C[C@H]2CCCN2C(=O)[C@H](Cc2ccccc2)NC(=O)[C@@H](NC(=O)c2ccc(Cl)s2)CCCSC/C=C/CSCCN1` [C3-X5-L4], the “Residual thrombin activity: Top sample” value amounted to 55.8 and the “Residual thrombin activity: Equilibrated sample” value is 36.8.

Consider `O=C1C[C@H]2CCCN2C(=O)[C@H](Cc2ccc(C(F)(F)F)cc2)NC(=O)[C@@H](NC(=O)c2ccc(Cl)s2)CCCSCc2ccc(cc2)CSCCN1` [C3-X36-L3], for which the “Residual thrombin activity: Top sample” value stood at 101.9 and the “Residual thrombin activity: Equilibrated sample” value is 98.7.

With `O=C1C[C@H]2CCCN2C(=O)[C@@H](Cc2ccccc2)NC(=O)[C@@H](NC(=O)c2ccc(Cl)s2)CSCc2ccccc2CSCCN1` [C1-X31-L6], the “Residual thrombin activity: Top sample” value turned out to be 88.4 and the “Residual thrombin activity: Equilibrated sample” value is 91.2.

`COc1ccc(C[C@@H]2NC(=O)[C@@H](NC(=O)c3ccc(Cl)s3)CCCSCc3ccc(cc3)CSCCNC(=O)C[C@H]3CCCN3C2=O)cc1` [C3-X33-L3]: the “Residual thrombin activity: Top sample” value is 102.2 and the “Residual thrombin activity: Equilibrated sample” value is 103.1.

For the compound `N#Cc1ccc(C[C@@H]2NC(=O)[C@@H](NC(=O)c3ccc(Cl)s3)CCCSCCS(=O)(=O)CCSCCNC(=O)C[C@H]3CCCN3C2=O)cc1` [C3-X35-L2], the “Residual thrombin activity: Top sample” value is 106.0 and the “Residual thrombin activity: Equilibrated sample” value was 96.7.

Turning to `Cc1cccc(C[C@@H]2NC(=O)[C@@H](NC(=O)c3ccc(Cl)s3)CSCC(=O)CSCCNC(=O)C[C@H]3CCCN3C2=O)c1` [C1-X37-L7], the “Residual thrombin activity: Top sample” value is reported as 94.3 and the “Residual thrombin activity: Equilibrated sample” value is 97.7.

`O=C1CSCCC[C@H](NC(=O)c2ccc(Cl)s2)C(=O)N[C@@H](Cc2ccc(C(F)(F)F)cc2)C(=O)N2CCC[C@@H]2CC(=O)NCCSC1` [C3-X36-L7]: the “Residual thrombin activity: Top sample” value was determined as 101.7 and the “Residual thrombin activity: Equilibrated sample” value was 101.7.

Consider `N#Cc1ccc(C[C@@H]2NC(=O)[C@@H](NC(=O)c3ccc(Cl)s3)CCCSCc3cccc(n3)CSCCNC(=O)C[C@H]3CCCN3C2=O)cc1` [C3-X35-L1], for which the “Residual thrombin activity: Top sample” value is listed as 93.2 and the “Residual thrombin activity: Equilibrated sample” value came out at 95.8.

Regarding `COc1ccc(C[C@@H]2NC(=O)[C@@H](NC(=O)c3ccc(Cl)s3)CSCc3cccc(c3)CSCCNC(=O)C[C@H]3CCCN3C2=O)cc1` [C1-X33-L5], the “Residual thrombin activity: Top sample” value was 99.7 and the “Residual thrombin activity: Equilibrated sample” value is recorded as 99.3.

In the case of `N#Cc1ccc(C[C@@H]2NC(=O)[C@@H](NC(=O)c3ccc(Cl)s3)CCSCc3ccc(cc3)CSCCNC(=O)C[C@H]3CCCN3C2=O)cc1` [C2-X35-L3], the “Residual thrombin activity: Top sample” value is reported as 101.8 and the “Residual thrombin activity: Equilibrated sample” value is 100.4.

Take `O=C1CSCCNC(=O)C[C@H]2CCCN2C(=O)[C@@H](Cc2ccccc2)NC(=O)[C@@H](NC(=O)c2ccc(Cl)s2)CSC1` [C1-X31-L7]: the “Residual thrombin activity: Top sample” value is on record as 96.8 and the “Residual thrombin activity: Equilibrated sample” value was 96.3.

Regarding `Cc1cccc(C[C@@H]2NC(=O)[C@@H](NC(=O)c3ccc(Cl)s3)CSC/C=C/CSCCNC(=O)C[C@H]3CCCN3C2=O)c1` [C1-X37-L4], the “Residual thrombin activity: Top sample” value is reported as 87.8 and the “Residual thrombin activity: Equilibrated sample” value came out at 60.4.

Regarding `Cc1cccc(C[C@@H]2NC(=O)[C@@H](NC(=O)c3ccc(Cl)s3)CCSCc3cccc(n3)CSCCNC(=O)C[C@H]3CCCN3C2=O)c1` [C2-X37-L1], the “Residual thrombin activity: Top sample” value is 88.2 and the “Residual thrombin activity: Equilibrated sample” value is on record as 83.3.
